From PubChem BioAssay (NCI)
Where “and” joins values, the source holds several entries; their conditions need not be identical. Equal values may be shown once.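 Cultured in 96-well plates, cells were exposed to test compound for 48 hours across five concentrations. GI50 marks 50% less growth. TGI: total growth inhibition.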

Tests used:
Experiment in all cases: DTP human tumour cell line panel, 48 h
HL-60(TB) leukemia = test system: HL-60(TB) leukemia
K-562 leukemia = test system: K-562 leukemia
MCF7 breast = test system: MCF7 breast
MDA-MB-435 = test system: MDA-MB-435
NCI/ADR-RES ovarian = test system: NCI/ADR-RES ovarian
BT-549 breast = test system: BT-549 breast

SMILES | GI50 (HL-60(TB) leukemia) | TGI (HL-60(TB) leukemia) | GI50 (K-562 leukemia) | TGI (K-562 leukemia) | GI50 (MCF7 breast) | TGI (MCF7 breast) | GI50 (MDA-MB-435) | TGI (MDA-MB-435) | GI50 (NCI/ADR-RES ovarian) | TGI (NCI/ADR-RES ovarian) | GI50 (BT-549 breast) | TGI (BT-549 breast)
O=c1c(O)cccc2cc(O)c(O)c(O)c12 | 21900 nM | 77.9 µM | 3950 nM | > 100 µM | 6460 nM | 23.9 µM | 3.82 µM | > 100 µM | 34.5 µM | > 100 µM |  | 
CCCCCCCCCCCCCCCC[N+](C)(CCO)Cc1cnc[nH]1 (centres undefined) | 390 nM | 2 µM | 1570 nM | > 100 µM | 1870 nM | 13.9 µM | 1.44 µM | 3.81 µM | 14.7 µM | 42.4 µM | 2.52 µM | 7.05 µM
N#CC(C#N)N=Nc1ccc(Br)cc1 | 1700 nM | 4.38 µM | 3020 nM | > 100 µM | 2740 nM | > 51.7 µM | 4.19 µM | 20 µM | 4.73 µM | > 100 µM | 4.18 µM | 31.5 µM
O=C(Nc1ccccc1O)c1ccc(CNc2ccnc(C(F)(F)F)c2)cc1 | 1850 nM | 8.03 µM | 2390 nM | > 100 µM | 4430 nM | > 100 µM | 3.47 µM | 20.9 µM | 2.41 µM | 54.4 µM | 3.43 µM | 50 µM
Cc1[nH]c2ccccc2c1-c1cc(-c2cc(-c3c(C)[nH]c4ccccc34)nc(N)n2)nc(N)n1 |  | > 100 µM |  | > 100 µM |  | > 100 µM |  | > 100 µM |  | > 100 µM |  | > 100 µM
O=[N+]([O-])/C=C/c1cc2ccccc2[nH]1 |  | 24.3 µM |  | 52.8 µM |  | 13.1 µM |  | 6.95 µM |  | 98.2 µM |  | 29.5 µM
COc1cc(Nc2ncc(F)c(Nc3ccc4c(n3)NC(=O)C(C)(C)O4)n2)cc(OC)c1OC | > 10000 nM | > 10 µM | > 100000 nM | > 100 µM | 3930 nM | > 10 µM | > 10 µM | > 10 µM | > 10 µM | > 10 µM | 3.24 µM | > 10 µM
COC1=CC23CCCN2CCc2cc4c(cc2C3C1O)OCO4 (centres undefined) |  | 83.8 µM |  |  |  | > 100 µM |  | > 100 µM |  | > 100 µM |  | > 100 µM
O=Cc1ccc(-c2ccc(-c3nc4ccccc4o3)cc2)s1 | 12700 nM | > 100 µM | 37000 nM | > 100 µM |  |  | 24.1 µM | 77.9 µM | 27.2 µM | 79.4 µM | 18 µM | 52.6 µM
O=C(/C=N/O)Nc1cc(Cl)c(Cl)cc1Cl |  | 53.8 µM |  | > 100 µM |  | > 100 µM |  | 67 µM |  | > 100 µM |  | 89.3 µM
CCCCCCCCCc1cc[n+](CC(=O)c2ccc([N+](=O)[O-])cc2)cc1 | 1700 nM | 3.64 µM | 338 nM | 2.02 µM | 397 nM | 1.79 µM | 0.391 µM | 1.56 µM | 2.17 µM | 4.92 µM | 1.27 µM | 2.72 µM
CC(C)CC(=O)Nc1n[nH]c2c1CN(C(=O)C1CCN(C)CC1)C2(C)C | 513 nM | 4.97 µM | 1340 nM | > 10 µM | 191 nM | > 10 µM | 1.41 µM | > 10 µM | > 10 µM | > 10 µM | 3.86 µM | > 10 µM
Nc1ccccc1NC(=O)c1ccc(CCCC(=O)Nc2ccc(C3CC3N)cc2)cc1 (centres undefined) | 725 nM | 65.2 µM | 658 nM | > 100 µM | 1710 nM | > 100 µM | 1.57 µM | 9.05 µM | 45.7 µM | > 100 µM | 3.09 µM | 37.9 µM
COC1=CC(=O)C(OC)=C(OC)C1=O | 2920 nM | 8.73 µM | 2290 nM | 6.05 µM | 21500 nM | 53.1 µM | 3.16 µM | 11.1 µM | 17.5 µM | 36.6 µM | 16.7 µM | 30.4 µM
CC#C/C(=N\OC[C@H]1COCCN1)c1ccc2ncnc(Nc3ccc(OCc4cccc(F)c4)c(Cl)c3)c2c1 | 2040 nM | 4.57 µM |  |  | 1570 nM | 3.05 µM | 1.67 µM | 3.1 µM | 1.27 µM | 2.87 µM | 6.06 µM | 20.5 µM
O=C(O)c1cc2ccccc2oc1=O |  | > 100 µM |  | > 100 µM |  | > 100 µM |  | > 100 µM |  | > 100 µM |  | > 100 µM
OC(COc1ccc(F)cc1)Cn1cnc2c(Cl)ncnc21 (centres undefined) | 36300 nM | > 100 µM |  |  | > 100000 nM | > 100 µM | 41.6 µM | > 100 µM | > 100 µM | > 100 µM | > 100 µM | > 100 µM

SMILES | GI50 (HL-60(TB) leukemia) | TGI (HL-60(TB) leukemia) | GI50 (K-562 leukemia) | TGI (K-562 leukemia) | GI50 (MCF7 breast) | TGI (MCF7 breast) | GI50 (MDA-MB-435) | TGI (MDA-MB-435) | GI50 (NCI/ADR-RES ovarian) | TGI (NCI/ADR-RES ovarian) | GI50 (BT-549 breast) | TGI (BT-549 breast)
CN1CCN(c2ccc(Nc3nc(N)c(C(=O)c4ccc5c(c4)OCCO5)s3)cc2)CC1 | 4620 nM | 11.6 µM | 2430 nM | 18.3 µM | 2850 nM | 7.73 µM | 3.44 µM | 12.2 µM | 7.54 µM | > 25 µM | 4.71 µM | 9.46 µM
Cc1cc2cn3c4ccc(O)cc4[nH]c(=O)c3c2cc1C |  |  |  | 0.329 µM |  |  |  | 0.0121 µM |  |  |  | 
CCN(CC)c1ccc2c(c1)Oc1nc(N)c(C#N)c(N)c1C2Sc1ccc(OC)cc1 (centres undefined) | 2280 nM | 6.44 µM | 2610 nM | 8.07 µM |  |  | 1.79 µM | 3.4 µM | 2.81 µM | 8.86 µM | 1.53 µM | 2.95 µM
COC(=O)c1c(O)c([N+](=O)[O-])cc2c1c1c(n2Cc2ccccc2)C(=O)c2ccccc2C1=O | 25700 nM | > 100 µM | 19000 nM | 92.6 µM | 5860 nM | 46.1 µM | 6.28 µM | 28 µM | 21.1 µM | 68.5 µM | 5.9 µM | 51.5 µM
Nc1ncnc2c1c(-c1cccc(OCc3ccccc3)c1)cn2C1CC(CN2CCC2)C1 (centres undefined) | 112 nM and 96.9 nM | 2.08 µM and 2.04 µM | 1710 nM and 2080 nM | 4.43 µM and 6.32 µM | 92 nM and 369 nM | 3.74 µM and 5.55 µM | 1.21 µM and 1.49 µM | 3.12 µM and 6.89 µM | 6.47 µM and 8.96 µM | 22.6 µM and > 10 µM | 2.57 µM and 5.84 µM | 6.91 µM and > 10 µM
Cc1cc(O)c(C2=NN(c3ccc(S(N)(=O)=O)cc3)C(c3ccc(N(C)C)cc3)C2)c(C)c1Cl (centres undefined) | 20300 nM | 50 µM | 14000 nM | 44.8 µM | 6550 nM | 24.2 µM | 13.4 µM | 31 µM | 19.3 µM | 76.4 µM | 15.4 µM | 43.3 µM
CC(=O)O[C@@H]1[C@@H](O)C2=C3[C@]4(C)[C@@H]1C(C)(C)C(=O)C[C@@H]4[C@]3(O)[C@H](OC(C)=O)[C@@]1(C[C@@H]1C)C2=O |  | 49.1 µM |  | > 100 µM |  | 47.4 µM |  | 37.8 µM |  | 62.5 µM |  | 37 µM
C=C1c2[nH]c3ccccc3c2C2C(CC)C1CCN2C (centres undefined) |  | > 100 µM |  |  |  | > 100 µM |  | > 100 µM |  | > 100 µM |  | > 100 µM
COC(=O)NC1(NC(=O)OC)NC(=O)c2cc(OC)c(OC)c(OC)c2N1 |  | 87.7 µM |  | > 100 µM |  | > 100 µM |  |  |  | 56.6 µM |  | > 100 µM
CN1C(=O)[C@@H](NC(=O)[C@H](CCC(F)(F)F)[C@H](CCC(F)(F)F)C(N)=O)N=C(c2ccccc2)c2ccccc21 | 62600 nM | > 100 µM | > 100000 nM | > 100 µM | 33400 nM | > 100 µM | 85.6 µM | > 100 µM | > 100 µM | > 100 µM | 88.8 µM | > 100 µM
COc1ccc(-c2nc(C(=O)c3ccccc3)n(CC(=O)c3ccccc3)c2-c2ccc(OC)cc2)cc1 | > 100000 nM | > 100 µM | > 100000 nM | > 100 µM | > 100000 nM | > 100 µM | > 100 µM | > 100 µM | > 100 µM | > 100 µM | > 100 µM | > 100 µM
CCN1C2=NCCN2S(=O)(=O)c2ccccc21 |  | > 100 µM |  | > 100 µM |  | > 100 µM |  | > 100 µM |  | > 100 µM |  | > 100 µM
Nc1nc2cc3ccc(C4CC(O)C(CO)O4)cc3cc2c(=O)[nH]1 (centres undefined) |  |  | > 100000 nM | > 100 µM | > 100000 nM | > 100 µM | > 100 µM | > 100 µM | > 100 µM | > 100 µM | > 100 µM | > 100 µM
COC(=O)Nc1nc2ccc(C(=O)c3ccc(N(C)C4COC4)cc3)cc2[nH]1 | 266 nM | 2.85 µM | 333 nM | > 100 µM | 346 nM | > 100 µM |  |  | 0.362 µM | > 100 µM | 2.08 µM | > 100 µM
O=C(/C=C/C=C/c1c(C2CC2)nc2ccccc2c1-c1ccc(F)cc1)c1cccs1 | 1580 nM | 5.48 µM |  |  | 467 nM | > 100 µM |  |  | 2.62 µM | > 100 µM | 1.59 µM | 5.07 µM
O=C(O)c1cc2ccccc2c(N=Nc2cc(C(F)(F)F)ccc2Cl)c1O |  | > 100 µM |  | > 100 µM |  | > 100 µM |  | > 100 µM |  | > 100 µM |  | 
